Where “and” joins values, the source holds several entries; their conditions need not be identical. Identical values can stand only once. Numbers after ± are expanded uncertainties.
Columns and labels:
[1] = Liquid; for mass density: Vibrating tube method
[2] = Boiling temperature at pressure P; details: Liquid, Ebulliometric method (Recirculating still)
[3] = refractive index (Na D-line) (dimensionless); details: 298.15 K; 101.33 kPa; Liquid; Standard Abbe refractometry

CC1CCC(=O)O1 (stereo not given) [γ-valerolactone]
[1]
Details | mass density | vapor or sublimation pressure [kPa]
293.15 K, 186 kPa | 1053.38 ± 1 kg/m3 | –
293.15 K, 187.01 kPa | 1053.43 ± 1 kg/m3 | –
293.15 K, 476.37 kPa | 1053.68 ± 1 kg/m3 | –
293.15 K, 977 kPa | 1054.07 ± 1 kg/m3 | –
293.15 K, 1979.3 kPa | 1054.81 ± 1 kg/m3 | –
293.15 K, 2978.5 kPa | 1055.47 ± 1 kg/m3 | –
293.15 K, 3976.8 kPa | 1056.08 ± 1 kg/m3 | –
293.15 K, 4978.1 kPa | 1056.65 ± 1 kg/m3 | –
298 K, 101.33 kPa | 1049.2 ± 1.2 kg/m3 | –
298.1 K, 107 kPa | 1048.8 ± 1.2 kg/m3 | –
298.16 K, 187.01 kPa | 1048.68 ± 1 kg/m3 | –
298.16 K, 189.01 kPa | 1048.83 ± 1 kg/m3 | –
298.16 K, 480.38 kPa | 1048.97 ± 1 kg/m3 | –
298.16 K, 978 kPa | 1049.41 ± 1 kg/m3 | –
298.16 K, 1980.3 kPa | 1050.16 ± 1 kg/m3 | –
298.16 K, 2980.5 kPa | 1050.86 ± 1 kg/m3 | –
298.16 K, 3977.8 kPa | 1051.48 ± 1 kg/m3 | –
298.16 K, 4976.1 kPa | 1052.05 ± 1 kg/m3 | –
350.18 K, Closed cell (Static) method | – | 1.2 ± 0.2
353.15 K, 187.01 kPa | 996.384 ± 1 kg/m3 | –
353.15 K, 190.01 kPa | 996.734 ± 1 kg/m3 | –
353.15 K, 194.01 kPa | 997.077 ± 1 kg/m3 | –
353.15 K, 198.02 kPa | 997.127 ± 1 kg/m3 | –
353.15 K, 484.38 kPa | 996.824 ± 1.1 kg/m3 | –
353.15 K, 492.39 kPa | 997.272 ± 1.1 kg/m3 | –
353.15 K, 979.01 kPa | 997.655 ± 1.1 kg/m3 | –
353.15 K, 984.01 kPa | 997.904 ± 1 kg/m3 | –
353.15 K, 985.01 kPa | 997.898 ± 1.1 kg/m3 | –
353.15 K, 1981.3 kPa | 998.74 ± 1 kg/m3 | –
353.15 K, 1987.3 kPa | 998.832 ± 1 kg/m3 | –
353.15 K, 1988.3 kPa | 998.837 ± 1 kg/m3 | –
353.15 K, 2979.5 kPa | 999.633 ± 1 kg/m3 | –
353.15 K, 2985.5 kPa | 999.73 ± 1 kg/m3 and 999.724 ± 1 kg/m3 | –
353.15 K, 3979.8 kPa | 1000.43 ± 1 kg/m3 | –
353.15 K, 3983.8 kPa | 1000.53 ± 1 kg/m3 | –
353.15 K, 3986.8 kPa | 1000.53 ± 1 kg/m3 | –
353.15 K, 4978.1 kPa | 1001.2 ± 1 kg/m3 | –
353.15 K, 4983.1 kPa | 1001.29 ± 1 kg/m3 | –
353.15 K, 4984.1 kPa | 1001.29 ± 1 kg/m3 | –
353.16 K, 188.01 kPa | 997.169 ± 1 kg/m3 | –
353.16 K, 489.39 kPa | 997.314 ± 1 kg/m3 | –
393.15 K, 180 kPa | 958.067 ± 1 kg/m3 | –
393.15 K, 182 kPa | 958.857 ± 1 kg/m3 and 958.463 ± 1 kg/m3 | –
393.15 K, 486.38 kPa | 958.065 ± 1 kg/m3 | –
393.15 K, 491.39 kPa | 958.888 ± 1 kg/m3 | –
393.15 K, 978 kPa | 959.43 ± 1.1 kg/m3 | –
393.15 K, 984.01 kPa | 959.712 ± 1 kg/m3 | –
393.15 K, 1981.3 kPa | 960.847 ± 1 kg/m3 | –
393.15 K, 1985.3 kPa | 960.883 ± 1 kg/m3 | –
393.15 K, 2980.5 kPa | 961.927 ± 1 kg/m3 | –
393.15 K, 2984.5 kPa | 961.921 ± 1 kg/m3 | –
393.15 K, 3978.8 kPa | 962.917 ± 1 kg/m3 | –
393.15 K, 3981.8 kPa | 962.913 ± 1 kg/m3 | –
393.15 K, 4977.1 kPa | 963.866 ± 1 kg/m3 | –
393.15 K, 4979.1 kPa | 963.861 ± 1 kg/m3 | –
393.16 K, 203.03 kPa | 958.939 ± 1 kg/m3 | –
433.14 K, 184 kPa | 918.984 ± 1 kg/m3 | –
433.15 K, 181 kPa | 918.395 ± 1 kg/m3 | –
433.15 K, 492.39 kPa | 919.562 ± 1 kg/m3 | –
433.15 K, 1984.3 kPa | 921.775 ± 1 kg/m3 | –
433.15 K, 2984.5 kPa | 923.091 ± 1 kg/m3 | –
433.15 K, 3983.8 kPa | 924.314 ± 1 kg/m3 | –
433.15 K, 4980.1 kPa | 925.496 ± 1 kg/m3 | –
433.16 K, 491.39 kPa | 919.299 ± 1 kg/m3 | –
433.16 K, 982.01 kPa | 920.309 ± 1 kg/m3 | –
453.14 K, 183 kPa | 898.494 ± 1 kg/m3 | –
453.15 K, 199.02 kPa | 898.908 ± 1 kg/m3 | –
453.15 K, 490.39 kPa | 898.859 ± 1 kg/m3 | –
453.15 K, 983.01 kPa | 900.059 ± 1 kg/m3 | –
453.15 K, 1982.3 kPa | 901.6 ± 1 kg/m3 | –
453.15 K, 2985.5 kPa | 903.051 ± 1 kg/m3 | –
453.15 K, 3983.8 kPa | 904.412 ± 1 kg/m3 | –
453.15 K, 4981.1 kPa | 905.731 ± 1 kg/m3 | –

[2]
Details | Boiling temperature at pressure P [°C]
0.58 kPa | 65.0 ± 6.3
1.14 kPa | 77.5 ± 5.7
1.49 kPa | 83.04 ± 3.9
1.86 kPa | 87.47 ± 3
2.49 kPa | 93.77 ± 2.1
4.37 kPa | 106.5 ± 1.3
8.66 kPa | 123.7 ± 1.1
10.61 kPa | 129.4 ± 0.8
11.92 kPa | 132.8 ± 0.6
16.51 kPa | 142.2 ± 0.6
20.17 kPa | 148.1 ± 0.5
27.32 kPa | 157.78 ± 0.35
35.64 kPa | 166.5 ± 0.3
43.21 kPa | 173.18 ± 0.23
61.04 kPa | 185.72 ± 0.2
82.18 kPa | 197.04 ± 0.18

Details | refractive index
[3] | 1.4316 ± 0.0012

— the NIST ThermoML archive (doi:10.1021/acs.jced.5b00724)
